Consider 4 compounds from article PMC7029851, “Antibacterial activity of novel dual bacterial DNA type II topoisomerase inhibitors” (PLoS ONE, 2020).

Assay [1] deals with K. pneumoniae AcrAB- mutant. In words: microbe, parasite or virus in culture. In kind it is cell-based. The following applies: Klebsiella pneumoniae. The method, boiled down:
(§1)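 MICs against efflux-deficient mutant strains were determined by broth microdilution following CLSI guidelines.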

In assay [2] the test system is H. influenzae AcrA- mutant. In words: microbe, parasite or virus in culture. In kind it is cell-based. The following applies: Haemophilus influenzae. The method, boiled down:
as §1

The subject of assay [3] is A. baumannii clinical isolates (n = 10). In words: microbe, parasite or virus in culture. In kind it is cell-based, Acinetobacter baumannii. The following applies: for MIC50 / MIC90: Acinetobacter baumannii. The procedure: (§2) The bacterial reference strains used in this study were purchased from ATCC (American Type Culture Collection) via LGC Standards (Middlesex, UK). […] Clinical MDR isolates were provided by Aptuit, the IHMA Europa Sàrl repository (Epalinges, Switzerland) and the Statens Serum Institute (Copenhagen, Denmark).
(§3) MICs were determined by the broth microdilution method (the agar dilution method was used only for N. gonorrhoeae) according to CLSI guidelines.
(§4) The results obtained using clinical isolates are reported as MIC50 and MIC90 values.

In assay [4] the test system is E. coli clinical isolates (n = 36). Description: MIC, multidrug-resistant clinical isolates. In kind it is cell-based, Escherichia coli. The following applies: Escherichia coli, E. coli MDR clinical isolates (n = 36); for MIC50: read-out: MIC50; for MIC90: read-out: MIC90. The procedure: as §2, §3, §4
Assay [5] concerns S. aureus clinical isolates (n = 10). In words: microbe, parasite or virus in culture. In kind it is cell-based, Staphylococcus aureus. The following applies: S. aureus MDR clinical isolates (n = 10); for MIC50 / MIC90: Staphylococcus aureus; for MIC50: read-out: MIC50; for MIC90: read-out: MIC90. The procedure:
as §2, §3, §4

A further assay has as its system S. pyogenes APV00083. In words: MIC, broth microdilution. Format: cell-based. The following applies: Streptococcus pyogenes; S. pyogenes APV00083, ciprofloxacin-susceptible. On the procedure: as §3
In the next assay the test system is A. baumannii APV00473. Description: MIC, broth microdilution. Format: cell-based. The following applies: Acinetobacter baumannii; A. baumannii APV00473, ciprofloxacin-resistant. On the procedure:
as §3

The subject of another assay is S. pyogenes APV00074. Description: MIC, broth microdilution. Format: cell-based. The following applies: Streptococcus pyogenes; S. pyogenes APV00074, ciprofloxacin-susceptible. On the procedure:
as §3

For the next assay, the system named is A. baumannii ATCC 19606. In words: MIC, broth microdilution. The following applies: Acinetobacter baumannii, ATCC19606; A. baumannii ATCC 19606, ciprofloxacin-susceptible. In kind it is cell-based. The procedure: as §3
In the next assay the test system is C. difficile ATCC 700057. In words: MIC, broth microdilution. Format: cell-based, Clostridium difficile. The following applies: Clostridioides difficile, ATCC700057. On the procedure: MICs were determined by the broth microdilution method (the agar dilution method was used only for N. gonorrhoeae) according to CLSI guidelines. […] The MIC values of antibiotics used in clinical practice were interpreted according to the susceptibility interpretive criteria reported in the appropriate CLSI Tables (M100-S25, CLSI, 2015).

Assay [6] concerns C. difficile clinical isolates (n = 21). Description: MIC, multidrug-resistant clinical isolates. In kind it is cell-based, Clostridium difficile. The following applies: Clostridioides difficile, C. difficile clinical isolates (n = 21); for MIC50: read-out: MIC50; for MIC90: read-out: MIC90; for MIC: read-out: MIC range. The procedure:
as §2, §3, §4

Where a name gives a salt, the structure may show the parent alone. A value given as a limit tells only on which side of the number the result lay.

For the compound `Cl.O=c1oc2ccc(F)cc2c2[nH]c(CN[C@H]3CC[C@H](n4c(=O)ccc5ncc(F)cc54)CC3)cc12` [Compound 3, 8-fluoro-2-({[trans-4-(7-fluoro-2-oxo-1,5-naphthyridin-1(2H)-yl)cyclohexyl]amino}methyl)[1]benzopyrano[4,3-b]pyrrol-4(1H)-one hydrochloride], the MIC in assay [1] was no more than 0.016 µg/mL; in [2], 0.06 µg/mL; in [4] it was 0.25 to 4 µg/mL; against S. pyogenes APV00083 it was 0.12 µg/mL; in the assay with A. baumannii APV00473, no more than 0.06 µg/mL; in the assay with S. pyogenes APV00074, no more than 0.06 µg/mL. Also, the MIC is no more than 0.06 µg/mL with A. baumannii ATCC 19606, 0.25 µg/mL in the assay on C. difficile ATCC 700057 and 0.06 to 0.25 µg/mL in assay [6]. Further, the results for the MIC range in [3] and in assay [5] were no more than 0.06 to 0.12 µg/mL and no more than 0.06 µg/mL, respectively. Moreover, the MIC50 in [3] is no more than 0.06 µg/mL; in assay [4] it was 1 µg/mL; in assay [5], no more than 0.06 µg/mL; in assay [6] it was 0.12 µg/mL. The MIC90 is 0.12 µg/mL in [3], 2 µg/mL in assay [4], no more than 0.06 µg/mL in assay [5] and 0.25 µg/mL in assay [6].

In the case of `O=c1oc2ccc(F)cc2c2[nH]c(CN[C@H]3CC[C@H](n4c(=O)cnc5ncc(F)cc54)CC3)cc12` [Compound 4, 8-fluoro-2-({[trans-4-(7-fluoro-2-oxopyrido[2,3-b]pyrazin-1(2H)-yl)cyclohexyl]amino}methyl)[1]benzopyrano[4,3-b]pyrrol-4(1H)-one (formate salt)], the MIC in [1] was 0.03 µg/mL; in assay [2], no more than 0.016 µg/mL; in the assay with S. pyogenes APV00083, 0.12 µg/mL; with A. baumannii APV00473 it was 0.12 µg/mL; against S. pyogenes APV00074 it was 0.12 µg/mL; against A. baumannii ATCC 19606 it was 0.5 µg/mL. Moreover, the MIC range in assay [3] and in [5] was no more than 0.06 to 0.5 µg/mL in each case. For the same compound, the MIC50 in assay [3] came out at 0.25 µg/mL; in [5], 0.12 µg/mL. Also, the MIC90 in [3] and in assay [5] was 0.5 µg/mL throughout.

Consider `COc1cnc2ncc(=O)n([C@H]3CC[C@H](NCc4cc5c(=O)oc6ccc(F)cc6c5[nH]4)CC3)c2c1` [Compound 5, 8-Fluoro-2-({[trans-4-(7-methoxy-2-oxopyrido[2,3-b]pyrazin-1(2H)-yl)cyclohexyl]amino}methyl)[1]benzopyrano[4,3-b]pyrrol-4(1H)-one hydrochloride], for which the MIC in assay [1] is 0.03 µg/mL; in assay [2] it was no more than 0.016 µg/mL; in assay [4] it was 0.5 to 16 µg/mL; against S. pyogenes APV00083 it was no more than 0.06 µg/mL; with A. baumannii APV00473, 0.5 µg/mL; against S. pyogenes APV00074, 0.12 µg/mL. In addition, the figures for the MIC (in the assay with A. baumannii ATCC 19606; with C. difficile ATCC 700057; in assay [6]) were 1 µg/mL, 0.25 µg/mL and 0.06 to 1 µg/mL, respectively. For the same compound, the MIC range in assay [3] is 0.25 to 1 µg/mL; in assay [5] it was no more than 0.06 to 0.5 µg/mL. For the same compound, the MIC50 is 0.5 µg/mL in assay [3], 2 µg/mL in assay [4], 0.12 µg/mL in assay [5] and 0.5 µg/mL in [6]. For the same compound, the MIC90 in [3] was 1 µg/mL; in [4], 4 µg/mL; in [5], 0.5 µg/mL; in assay [6] it was 1 µg/mL.

As for `Cl.O=c1oc2ccc(F)cc2c2[nH]c(CN[C@H]3CC[C@H](n4c(=O)ccc5ccc(F)cc54)CC3)cc12` [Compound 6, 8-fluoro-2-({[trans-4-(7-fluoro-2-oxoquinolin-1(2H)-yl)cyclohexyl]amino}methyl)[1]benzopyrano[4,3-b]pyrrol-4(1H)-one hydrochloride], in assay [4], the MIC is 0.25 to 4 µg/mL, the MIC50 came out at 2 µg/mL and the MIC90 amounted to 4 µg/mL. The compound further came in with an MIC against C. difficile ATCC 700057 of 0.5 µg/mL. In assay [6], the MIC50 was determined as 0.25 µg/mL, the MIC90 was determined as 0.25 µg/mL and the MIC was 0.06 to 0.25 µg/mL.
